Assay results: PubChem BioAssay AID202 (DTP/NCI, 2004)
Several values for one entry are separate records, joined by “and”; a condition that tells them apart may be missing. Identical values can stand only once.

Tested on: HT29 xenograft, nude mice, s.c., tumor weight T/C%
Test: NCI In Vivo Anticancer Drug Screen. Data for tumor model HT29;CX-1 Human Adenocarcinoma (MER+) (subcutaneous) in NU/NU Swiss (nude) mice
Conditions: endpoint: optimum tumor weight change, higher = larger tumour
Procedure: The antitumor activity of compounds was measured in mice bearing transplantable tumors. Survival or tumor size were measured and the results are expressed as the measurement made in the treated group (T) divided by the measurement made in the vehicle treated control group (C). The tumor model used in this assay is HT29;CX-1 Human Adenocarcinoma (MER+) (subcutaneous) in NU/NU Swiss (nude) mice

[1] = dose: 50.0 mg/kg/injection, schedule: Q04DX003 (ip), vehicle: Klucel (hydroxypropylcellulose) (HPC)
[2] = dose: 100.0 mg/kg/injection, schedule: Q04DX003 (ip), vehicle: suspension in saline
[3] = dose: 200.0 mg/kg/injection, schedule: Q04DX003 (ip), vehicle: suspension in saline
[4] = dose: 400.0 mg/kg/injection, schedule: Q04DX003 (ip), vehicle: suspension in saline
[5] = dose: 400.0 mg/kg/injection, schedule: Q04DX003 (ip), vehicle: saline with Tween-80
[6] = dose: 200.0 mg/kg/injection, schedule: Q04DX003 (ip), vehicle: saline
[7] = dose: 800.0 mg/kg/injection, schedule: Q04DX003 (ip), vehicle: saline
[8] = dose: 12.5 mg/kg/injection, schedule: Q04DX003 (ip), vehicle: saline
[9] = dose: 25.0 mg/kg/injection, schedule: Q04DX003 (ip), vehicle: saline
[10] = dose: 50.0 mg/kg/injection, schedule: Q04DX003 (ip), vehicle: saline
[11] = dose: 100.0 mg/kg/injection, schedule: Q04DX003 (ip), vehicle: saline
[12] = dose: 100.0 mg/kg/injection, schedule: Q04DX003 (ip), vehicle: Klucel (hydroxypropylcellulose) (HPC)
[13] = dose: 5.0 mg/kg/injection, schedule: Q04DX003 (ip), vehicle: Klucel (hydroxypropylcellulose) (HPC)
[14] = dose: 50.0 mg/kg/injection, schedule: Q04DX003 (ip), vehicle: suspension in saline

`Cc1c(N)nc([C@H](CC(N)=O)NC[C@H](N)C(N)=O)nc1C(=O)N[C@H](C(=O)N[C@H](C)[C@@H](O)CC(=O)N[C@H](C(=O)NC(O[C@@H]1O[C@@H](C)[C@@H](N)[C@@H](O)[C@H]1O)C(O)c1nc(-c2nc(C(=O)NCCCCN)cs2)cs1)[C@@H](C)O)[C@@H](O[C@@H]1O[C@@H](CO)[C@@H](O)[C@H](O)[C@@H]1O[C@H]1O[C@H](CO)[C@@H](O)[C@H](OC(N)=O)[C@@H]1O)c1c[nH]cn1` (stereo partly drawn) was tested. Which T/C (dose: 4.0 mg/kg/injection, schedule: Q04DX003 (ip), vehicle: saline) did it give?
Its T/C is 47 % of control.

What about the T/C (dose: 8.0 mg/kg/injection, schedule: Q04DX003 (ip), vehicle: saline) of the same compound?
The T/C was 27 % of control.

And the T/C (dose: 16.0 mg/kg/injection, schedule: Q04DX003 (ip), vehicle: saline)?
The T/C was 7 % of control.

How did the T/C (dose: 1.5 mg/kg/injection, schedule: Q04DX003 (ip), vehicle: saline) turn out when `COC1C(O)CC(OC2CC(OC3CC(O[C@@H]4C(=O)c5c(cc6cc(OC7CC(OC8CC(O)C(O)C(C)O8)C(O)C(C)O7)c(C)c(O)c6c5O)C[C@H]4[C@H](OC)C(=O)[C@@H](O)[C@@H](C)O)OC(C)C3O)OC(C)C2O)OC1C` (stereo partly drawn) was run?
Its T/C is 52 % of control.

`CCCC(=O)OCc1cc(=O)n(C)c2c3c4c(cc12)c(C)cc(=O)n4CO3` was tested. Which T/C [1] did it give?
The T/C was 53 % of control.

Which T/C [2] does the source give for `CC(C)=CCNc1ncnc2c1ncn2C1OC(CO)C(O)C1O` (stereo not drawn) here?
Its T/C is 106 % of control.

What about the T/C [3] of the same compound?
Its T/C is 77 % of control.

What about the T/C [4] of the same compound?
Its T/C is 65 % of control.

What about the T/C (dose: 800.0 mg/kg/injection, schedule: Q04DX003 (ip), vehicle: suspension in saline) of the same compound?
The T/C was 64 % of control.

Which results are given for `CC(=O)Oc1ccc[nH]c1=O`?
T/C (dose: 200.0 mg/kg/injection, schedule: Q04DX003 (ip), vehicle: saline with Tween-80): 96 % of control; T/C [5]: 111 % of control

Which results are given for `CNC=O`?
T/C [6]: 168 % of control; T/C (dose: 400.0 mg/kg/injection, schedule: Q04DX003 (ip), vehicle: saline): 78 % of control; T/C [7]: 104 % of control

Which results are given for `CCCCNCCCNCCCNC(=O)c1csc(-c2csc(CCNC(=O)C(NC(=O)C(C)C(O)C(C)NC(=O)C(NC(=O)c3nc(C(CC(N)=O)NCC(N)C(N)=O)nc(N)c3C)C(OC3OC(CO)C(O)C(O)C3OC3OC(CO)C(O)C(OC(N)=O)C3O)c3cnc[nH]3)C(C)O)n2)n1` (stereo not drawn)?
T/C (dose: 7.5 mg/kg/injection, schedule: Q04DX003 (ip), vehicle: saline): 75 % of control; T/C (dose: 15.0 mg/kg/injection, schedule: Q04DX003 (ip), vehicle: saline): 28 % of control; T/C (dose: 15.0 mg/kg/injection, schedule: Q04DX004 (ip), vehicle: saline): 40 % of control; T/C (dose: 30.0 mg/kg/injection, schedule: Q04DX003 (ip), vehicle: saline): 19 % of control and 33 % of control; T/C (dose: 30.0 mg/kg/injection, schedule: Q04DX004 (ip), vehicle: saline): 38 % of control; T/C (dose: 60.0 mg/kg/injection, schedule: Q04DX003 (ip), vehicle: saline): 20 % of control; T/C (dose: 60.0 mg/kg/injection, schedule: Q04DX004 (ip), vehicle: saline): 18 % of control; T/C (dose: 120.0 mg/kg/injection, schedule: Q04DX003 (ip), vehicle: saline): 2 % of control

For `OCC1OC(n2cnc3cncnc32)C(O)C1O` (stereo not drawn), which T/C [8] is on record?
Its T/C is 49 % of control.

What about the T/C [9] of the same compound?
The T/C was 48 % of control.

Which results are given for `CN(CO)c1nc(N(C)CO)nc(N(C)CO)n1`?
T/C (dose: 25.0 mg/kg/injection, schedule: Q01DX005 (ip), vehicle: Klucel (hydroxypropylcellulose) (HPC)): 75 % of control; T/C (dose: 25.0 mg/kg/injection, schedule: Q04DX005 (ip), vehicle: Klucel (hydroxypropylcellulose) (HPC)): 62 % of control; T/C (dose: 25.0 mg/kg/injection, schedule: Q07DX005 (ip), vehicle: Klucel (hydroxypropylcellulose) (HPC)): 93 % of control; T/C (dose: 50.0 mg/kg/injection, schedule: Q01DX005 (ip), vehicle: Klucel (hydroxypropylcellulose) (HPC)): 102 % of control and 123 % of control; T/C (dose: 50.0 mg/kg/injection, schedule: Q04DX005 (ip), vehicle: Klucel (hydroxypropylcellulose) (HPC)): 119 % of control and 120 % of control; T/C (dose: 50.0 mg/kg/injection, schedule: Q07DX005 (ip), vehicle: Klucel (hydroxypropylcellulose) (HPC)): 99 % of control; T/C [2]: 75 % of control; T/C (dose: 100.0 mg/kg/injection, schedule: Q04DX005 (ip), vehicle: Klucel (hydroxypropylcellulose) (HPC)): 99 % of control and 116 % of control; T/C (dose: 100.0 mg/kg/injection, schedule: Q07DX005 (ip), vehicle: Klucel (hydroxypropylcellulose) (HPC)): 48 % of control; T/C (dose: 200.0 mg/kg/injection, schedule: Q07DX005 (ip), vehicle: Klucel (hydroxypropylcellulose) (HPC)): 47 % of control and 58 % of control

Which T/C [10] does the source give for `C=CC(=O)NCNC(=O)C=C` here?
Its T/C is 78 % of control.

What about the T/C [11] of the same compound?
Its T/C is 65 % of control.

What about the T/C [6] of the same compound?
Its T/C is 60 % of control.

`O=S(CCCl)CCCl` was tested. Which T/C (dose: 25.0 mg/kg/injection, schedule: Q04DX003 (ip), vehicle: Klucel (hydroxypropylcellulose) (HPC)) did it give?
Its T/C is 72 % of control.

And the T/C [1]?
Its T/C is 51 % of control.

And the T/C [12]?
Its T/C is 65 % of control.

With `NC(Cc1ccc(N(CCCl)CCCl)cc1)C(=O)O` (stereo not drawn) as the compound, how does the T/C [13] read?
Its T/C is 73 % of control.

Which T/C [10] does the source give for `N=C(N)Sc1ccccn1` here?
The T/C was 77 % of control.

And the T/C [11]?
Its T/C is 112 % of control.

What about the T/C [6] of the same compound?
Its T/C is 65 % of control.

With `CN1N=C(N)c2cn(C3OC(COP(=O)(O)O)C(O)C3O)c3ncnc1c23` (stereo not drawn) as the compound, how does the T/C (dose: 50.0 mg/kg/injection, schedule: Q04DX003 (ip), vehicle: water) read?
The T/C was 121 % of control.

How did the T/C (dose: 3.0 mg/kg/injection, schedule: Q04DX003 (ip), vehicle: suspension in saline) turn out when `C=C(C)[C@H]1Cc2c(ccc3c2O[C@@H]2COc4cc(OC)c(OC)cc4[C@@H]2C3=O)O1` was run?
The T/C was 90 % of control.

And the T/C (dose: 6.0 mg/kg/injection, schedule: Q04DX003 (ip), vehicle: suspension in saline)?
The T/C was 77 % of control.

What about the T/C (dose: 12.0 mg/kg/injection, schedule: Q04DX003 (ip), vehicle: suspension in saline) of the same compound?
The T/C was 91 % of control.

What about the T/C [8] of the same compound?
Its T/C is 70 % of control.

What about the T/C [9] of the same compound?
Its T/C is 102 % of control.

What about the T/C [10] of the same compound?
The T/C was 50 % of control.

`N=C(N)SCc1c2ccccc2c(CSC(=N)N)c2ccccc12` was tested. Which T/C [14] did it give?
The T/C was 88 % of control.

Which T/C [5] does the source give for `Nc1ccc(Cl)cc1N` here?
The T/C was 87 % of control.

And the T/C (dose: 800.0 mg/kg/injection, schedule: Q04DX003 (ip), vehicle: saline with Tween-80)?
Its T/C is 98 % of control.

`N/C(=N\O)c1cn(C2OC(CO)C(O)C2O)c2ncnc(N)c12` (stereo not drawn) was tested. Which T/C [13] did it give?
Its T/C is 91 % of control.

What about the T/C (dose: 10.0 mg/kg/injection, schedule: Q04DX003 (ip), vehicle: Klucel (hydroxypropylcellulose) (HPC)) of the same compound?
The T/C was 63 % of control.

And the T/C (dose: 20.0 mg/kg/injection, schedule: Q04DX003 (ip), vehicle: Klucel (hydroxypropylcellulose) (HPC))?
Its T/C is 47 % of control.

Which T/C (dose: 6.25 mg/kg/injection, schedule: Q04DX003 (ip), vehicle: saline) does the source give for `COc1cccc2c1C(=O)c1c(O)c3c(c(O)c1C2=O)C[C@@](O)(/C(C)=N\O)C[C@@H]3OC1CC(N)C(O)C(C)O1` (stereo partly drawn) here?
The T/C was 68 % of control.

What about the T/C [8] of the same compound?
Its T/C is 63 % of control.

What about the T/C [9] of the same compound?
Its T/C is 56 % of control.

Which T/C (dose: 2.5 mg/kg/injection, schedule: Q04DX003 (ip), vehicle: saline) does the source give for `COc1cc([C@@H]2c3cc4c(c(O)c3C[C@H]3COC(=O)[C@@H]32)OCO4)cc(OC)c1OC` here?
Its T/C is 83 % of control.

And the T/C (dose: 5.0 mg/kg/injection, schedule: Q04DX003 (ip), vehicle: saline)?
The T/C was 114 % of control.

And the T/C (dose: 10.0 mg/kg/injection, schedule: Q04DX003 (ip), vehicle: saline)?
The T/C was 52 % of control.

For `CC(CN1CC(=O)NC(=O)C1)N1CC(=O)NC(=O)C1` (stereo not drawn), which T/C [14] is on record?
The T/C was 73 % of control.

And the T/C [2]?
Its T/C is 50 % of control.

What about the T/C [3] of the same compound?
Its T/C is 57 % of control.

What does the source list for `O=c1[nH]cnc2n[nH]nc12`?
T/C [12]: 67 % of control; T/C (dose: 200.0 mg/kg/injection, schedule: Q04DX003 (ip), vehicle: Klucel (hydroxypropylcellulose) (HPC)): 67 % of control; T/C (dose: 400.0 mg/kg/injection, schedule: Q04DX003 (ip), vehicle: Klucel (hydroxypropylcellulose) (HPC)): 31 % of control

`NC(=S)N/N=C/c1ccc(O)cn1` was tested. Which T/C (dose: 150.0 mg/kg/injection, schedule: Q04DX003 (ip), vehicle: saline with Tween-80) did it give?
The T/C was 63 % of control.

What about the T/C (dose: 300.0 mg/kg/injection, schedule: Q04DX003 (ip), vehicle: saline with Tween-80) of the same compound?
Its T/C is 70 % of control.

And the T/C (dose: 600.0 mg/kg/injection, schedule: Q04DX003 (ip), vehicle: saline with Tween-80)?
The T/C was 87 % of control.

`COC(OC(CO)C(O)S(=O)(=O)O)C(O)S(=O)(=O)O` (stereo not drawn) was tested. Which T/C [3] did it give?
Its T/C is 54 % of control.

What about the T/C [4] of the same compound?
Its T/C is 80 % of control.

Which T/C [10] does the source give for `N=c1ccn2c(n1)OC1C(O)C(CO)OC12` (stereo not drawn) here?
The T/C was 70 % of control.

And the T/C [11]?
The T/C was 49 % of control.

And the T/C [6]?
Its T/C is 71 % of control and 77 % of control.

And the T/C [7]?
The T/C was 40 % of control.
